From the NIST ThermoML archive (doi:10.1016/j.fluid.2018.05.028)

Experiment: refractive index (Na D-line) (dimensionless); xn = mol fraction of the nth substance listed
Conditions: 101 kPa, Liquid, Standard Abbe refractometry

CCCCCCCC/C=C\CCCCCCCC(=O)OCC [ethyl (Z)-9-octadeceneoate] + CCCO
refractive index
Conditions | x2 = 0 | x2 = 0.1 | x2 = 0.2 | x2 = 0.3 | x2 = 0.4 | x2 = 0.5 | x2 = 0.6 | x2 = 0.7 | x2 = 0.8 | x2 = 0.9
293.15 K | 1.4494 | 1.4484 | 1.4468 | 1.4448 | 1.4422 | 1.4388 | 1.4346 | 1.4287 | 1.4205 | 1.408
298.15 K | 1.4474 | 1.4464 | 1.4448 | 1.4427 | 1.4401 | 1.4367 | 1.4325 | 1.4267 | 1.4184 | 1.4058
303.15 K | 1.4454 | 1.4444 | 1.4427 | 1.4406 | 1.4381 | 1.4347 | 1.4305 | 1.4246 | 1.4163 | 1.4037
308.15 K | 1.4433 | 1.4423 | 1.4407 | 1.4386 | 1.436 | 1.4326 | 1.4284 | 1.4225 | 1.4142 | 1.4016
313.15 K | 1.4414 | 1.4403 | 1.4386 | 1.4365 | 1.4339 | 1.4305 | 1.4262 | 1.4204 | 1.4121 | 1.3994
318.15 K | 1.4395 | 1.4382 | 1.4366 | 1.4344 | 1.4318 | 1.4284 | 1.4241 | 1.4183 | 1.4099 | 1.3973
323.15 K | 1.4375 | 1.4362 | 1.4345 | 1.4323 | 1.4297 | 1.4263 | 1.422 | 1.4161 | 1.4078 | 1.3952
328.15 K | 1.4355 | 1.4341 | 1.4325 | 1.4303 | 1.4276 | 1.4242 | 1.4199 | 1.4139 | 1.4057 | 1.393
333.15 K | 1.4335 | 1.4321 | 1.4304 | 1.4282 | 1.4255 | 1.422 | 1.4178 | 1.4118 | 1.4035 | 1.3907
338.15 K | 1.4315 | 1.4301 | 1.4284 | 1.4261 | 1.4234 | 1.4199 | 1.4156 | 1.4096 | 1.4013 | 1.3884
343.15 K | 1.4296 | 1.4281 | 1.4264 | 1.4241 | 1.4213 | 1.4178 | 1.4134 | 1.4074 | 1.3991 | 1.3861

CCCCCCCCCCCCCCCC [hexadecane] + CCCCO
refractive index
Conditions | x2 = 0 | x2 = 0.1 | x2 = 0.2 | x2 = 0.3 | x2 = 0.4 | x2 = 0.5 | x2 = 0.6 | x2 = 0.7 | x2 = 0.8 | x2 = 0.9
293.15 K | 1.434 | 1.4329 | 1.4315 | 1.4295 | 1.4274 | 1.425 | 1.422 | 1.4184 | 1.4139 | 1.4078
298.15 K | 1.4318 | 1.4307 | 1.4293 | 1.4274 | 1.4252 | 1.4228 | 1.4199 | 1.4162 | 1.4118 | 1.4057
303.15 K | 1.4296 | 1.4286 | 1.4271 | 1.4252 | 1.4231 | 1.4206 | 1.4177 | 1.4141 | 1.4096 | 1.4036
308.15 K | 1.4275 | 1.4264 | 1.425 | 1.423 | 1.4209 | 1.4185 | 1.4155 | 1.4119 | 1.4075 | 1.4015
313.15 K | 1.4254 | 1.4242 | 1.4228 | 1.4208 | 1.4187 | 1.4163 | 1.4134 | 1.4097 | 1.4053 | 1.3994
318.15 K | 1.4233 | 1.4221 | 1.4206 | 1.4186 | 1.4165 | 1.4141 | 1.4111 | 1.4075 | 1.4031 | 1.3973
323.15 K | 1.4211 | 1.4199 | 1.4184 | 1.4164 | 1.4143 | 1.4119 | 1.4089 | 1.4053 | 1.4009 | 1.3951
328.15 K | 1.419 | 1.4177 | 1.4162 | 1.4142 | 1.4121 | 1.4097 | 1.4067 | 1.4031 | 1.3987 | 1.3929
333.15 K | 1.4169 | 1.4156 | 1.4141 | 1.4121 | 1.4099 | 1.4074 | 1.4045 | 1.4009 | 1.3965 | 1.3907
338.15 K | 1.4149 | 1.4135 | 1.4119 | 1.4099 | 1.4077 | 1.4052 | 1.4022 | 1.3987 | 1.3942 | 1.3885
343.15 K | 1.4129 | 1.4114 | 1.4097 | 1.4076 | 1.4056 | 1.403 | 1.4 | 1.3964 | 1.392 | 1.3862

CCCCCCCCCCCCCCCC [hexadecane] + CCCO
refractive index
Conditions | x2 = 0 | x2 = 0.1 | x2 = 0.2 | x2 = 0.3 | x2 = 0.4 | x2 = 0.5 | x2 = 0.6 | x2 = 0.7 | x2 = 0.8 | x2 = 0.9
293.15 K | 1.434 | 1.4327 | 1.431 | 1.4288 | 1.4266 | 1.4233 | 1.4196 | 1.4148 | 1.4084 | 1.3993
298.15 K | 1.4318 | 1.4305 | 1.4288 | 1.4266 | 1.4244 | 1.4211 | 1.4174 | 1.4127 | 1.4062 | 1.3972
303.15 K | 1.4296 | 1.4284 | 1.4266 | 1.4244 | 1.4222 | 1.4189 | 1.4152 | 1.4105 | 1.4041 | 1.3951
308.15 K | 1.4275 | 1.4262 | 1.4245 | 1.4223 | 1.42 | 1.4167 | 1.4131 | 1.4083 | 1.4019 | 1.3929
313.15 K | 1.4254 | 1.4241 | 1.4223 | 1.4201 | 1.4179 | 1.4145 | 1.4109 | 1.4061 | 1.3998 | 1.3908
318.15 K | 1.4233 | 1.4219 | 1.4201 | 1.4179 | 1.4156 | 1.4123 | 1.4087 | 1.4038 | 1.3976 | 1.3885
323.15 K | 1.4211 | 1.4197 | 1.4179 | 1.4157 | 1.4134 | 1.41 | 1.4064 | 1.4016 | 1.3952 | 1.3863
328.15 K | 1.419 | 1.4176 | 1.4157 | 1.4135 | 1.4112 | 1.4077 | 1.4041 | 1.3993 | 1.393 | 1.3841
333.15 K | 1.4169 | 1.4154 | 1.4135 | 1.4113 | 1.4089 | 1.4054 | 1.4018 | 1.397 | 1.3907 | 1.3818
338.15 K | 1.4149 | 1.4133 | 1.4113 | 1.4091 | 1.4067 | 1.4032 | 1.3995 | 1.3947 | 1.3884 | 1.3795
343.15 K | 1.4129 | 1.4111 | 1.4092 | 1.4069 | 1.4044 | 1.401 | 1.3972 | 1.3924 | 1.386 | 1.3771
